Assay [1] addresses PRMT5 (Homo sapiens, UniProt O14744). As to the kind of experiment: Western blot of PRMT5 protein levels in MCF-7 cells. Details: endogenous in cells; host or cells: MCF-7. Type of assay: cell-based. The following applies: for suppressing PRMT5 expression: MCF-7 cells (Examples 90-92). The protocol:
MCF-7 cells, HEK293T cells and HeLa cells were cultured in Dulbecco's Modified Eagle Medium (DMEM) supplemented with 10% fetal bovine serum (FBS) in 5% CO2 at 37° C. Jurkat cells were cultured in RPMI 1640 medium supplemented with 10% FBS in 5% CO2 at 37° C. H2171 cells were cultured in HITES medium supplemented with 10% FBS in 5% CO2 at 37° C. HCT116 were cultured in McCoy's 5A medium supplemented with 10% fetal bovine serum (FBS) in 5% CO2 at 37° C. All the cells lines were treated with 5 μM (or indicated concentration) of PRMT5 inhibitor (EPZ015666) or degraders, or equivalent volume of DMSO for 6 days (or indicated time points). Fresh compounds were constituted in medium and used for every 2 days. The antibodies used in this study are: PRMT5 antibody (Active Motif), (3-actin antibody (Sigma), SDMA antibody (collaboration with Cell Signaling Technologies). Cell cultures were harvested at the end of compound treatments and applied subjected to western blotting assay. Briefly, cells were washed with PBS and lysed with RIPA lysis buffer for 20 minutes on ice. Then lysates were centrifuged and the clear supernatant were collected. SDS loading buffer was added to the lysates and then the mixture was boiled at 100° C. for 5 minutes. Samples were loaded to 10% or 12% SDS-PAGE gel and ran at 120V for 1.5 hours. Then the proteins were transferred to PVDF membrane and blocked in 5% milk fat at room temperature for 1 hour. Then the membranes were incubated with indicated antibodies at 4° C. overnight. Membranes were washed with PBST buffer three times for 10 minutes each time and incubated with HRP-conjugated (horse radish peroxidase) secondary antibodies at room temperature for 1 hour. Again the membranes were washed with PBST buffer three times for 10 minutes each time. Finally, the indicated proteins on the membranes were visualized with ECL (enhanced chemiluminescence) reagents. MCF-7 cells were treated with DMSO or indicated compounds at 5 μM for 6 days. […] MCF-7 cells were treated with DMSO or indicated serial dilutions of compounds for 6 days. The PRMT5 protein levels were determined by Western blot.
(Immunoblotting shows a protein as a band on a membrane.)

The test system of assay [2] is PRMT5 substrates. As to the kind of experiment: Arginine symmetric dimethylation (SDMA Western blot) in MCF-7 cells. Type of assay: cell-based. The following applies: MCF-7 cells (Examples 90-92). The procedure: MCF-7 cells, HEK293T cells and HeLa cells were cultured in Dulbecco's Modified Eagle Medium (DMEM) supplemented with 10% fetal bovine serum (FBS) in 5% CO2 at 37° C. Jurkat cells were cultured in RPMI 1640 medium supplemented with 10% FBS in 5% CO2 at 37° C. H2171 cells were cultured in HITES medium supplemented with 10% FBS in 5% CO2 at 37° C. HCT116 were cultured in McCoy's 5A medium supplemented with 10% fetal bovine serum (FBS) in 5% CO2 at 37° C. All the cells lines were treated with 5 μM (or indicated concentration) of PRMT5 inhibitor (EPZ015666) or degraders, or equivalent volume of DMSO for 6 days (or indicated time points). Fresh compounds were constituted in medium and used for every 2 days. The antibodies used in this study are: PRMT5 antibody (Active Motif), (3-actin antibody (Sigma), SDMA antibody (collaboration with Cell Signaling Technologies). Cell cultures were harvested at the end of compound treatments and applied subjected to western blotting assay. Briefly, cells were washed with PBS and lysed with RIPA lysis buffer for 20 minutes on ice. Then lysates were centrifuged and the clear supernatant were collected. SDS loading buffer was added to the lysates and then the mixture was boiled at 100° C. for 5 minutes. Samples were loaded to 10% or 12% SDS-PAGE gel and ran at 120V for 1.5 hours. Then the proteins were transferred to PVDF membrane and blocked in 5% milk fat at room temperature for 1 hour. Then the membranes were incubated with indicated antibodies at 4° C. overnight. Membranes were washed with PBST buffer three times for 10 minutes each time and incubated with HRP-conjugated (horse radish peroxidase) secondary antibodies at room temperature for 1 hour. Again the membranes were washed with PBST buffer three times for 10 minutes each time. Finally, the indicated proteins on the membranes were visualized with ECL (enhanced chemiluminescence) reagents. MCF-7 cells were treated with EPZ015666 or YS43-22 at indicated compound concentrations (μM) for 6 days.

Assay [3] has as its system MCF-7 cells. As to the kind of experiment: Cell proliferation assay (Cell-Titer Glo) in MCF-7 cells. Type of assay: cell-based. The settings on record: 5 μM, 10 days. The protocol:
The same starting number of MCF-7 cells were treated with DMSO, 5 μM EPZ015666 or YS43-22 for up to 10 days. Every two days, fresh compounds were constituted in DMEM medium and added to the cell culture. Relative cell numbers were counted every two days (i.e. day 0, 2, 4, 6, 8 and 10) using Cell-Titer Glo kit (Promega). MCF-7 cells were treated with DMSO, EPZ015666 (5 μM), or YS43-22 (5 μM) for 10 days.

Assay [4] relates to MTAP-deleted cells. The following applies: cited from earlier work.
In assay [5] the test system is cancer cells. The following applies: EPZ015666 alone (Jin, 2016; Kryukov, 2016); cited from earlier work.

Chain of PRMT5 (O14744 whole entry): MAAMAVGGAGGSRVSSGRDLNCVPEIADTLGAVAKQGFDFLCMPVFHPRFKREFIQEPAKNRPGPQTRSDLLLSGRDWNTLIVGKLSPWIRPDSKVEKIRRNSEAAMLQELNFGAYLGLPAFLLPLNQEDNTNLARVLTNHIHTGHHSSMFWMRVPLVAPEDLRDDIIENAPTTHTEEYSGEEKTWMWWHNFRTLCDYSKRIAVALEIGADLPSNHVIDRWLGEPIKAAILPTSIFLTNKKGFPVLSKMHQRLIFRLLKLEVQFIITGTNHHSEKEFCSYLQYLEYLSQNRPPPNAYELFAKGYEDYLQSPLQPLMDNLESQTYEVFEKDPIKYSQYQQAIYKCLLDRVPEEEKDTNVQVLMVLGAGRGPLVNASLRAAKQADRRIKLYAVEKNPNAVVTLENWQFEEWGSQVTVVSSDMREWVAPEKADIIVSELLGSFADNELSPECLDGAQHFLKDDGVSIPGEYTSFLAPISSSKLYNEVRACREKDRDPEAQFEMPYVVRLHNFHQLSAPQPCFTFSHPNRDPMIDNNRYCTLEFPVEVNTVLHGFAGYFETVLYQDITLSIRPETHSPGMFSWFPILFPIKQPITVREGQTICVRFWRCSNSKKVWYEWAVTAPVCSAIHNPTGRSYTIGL
Chain of PRMT5 (Q9BQA1 whole entry partner): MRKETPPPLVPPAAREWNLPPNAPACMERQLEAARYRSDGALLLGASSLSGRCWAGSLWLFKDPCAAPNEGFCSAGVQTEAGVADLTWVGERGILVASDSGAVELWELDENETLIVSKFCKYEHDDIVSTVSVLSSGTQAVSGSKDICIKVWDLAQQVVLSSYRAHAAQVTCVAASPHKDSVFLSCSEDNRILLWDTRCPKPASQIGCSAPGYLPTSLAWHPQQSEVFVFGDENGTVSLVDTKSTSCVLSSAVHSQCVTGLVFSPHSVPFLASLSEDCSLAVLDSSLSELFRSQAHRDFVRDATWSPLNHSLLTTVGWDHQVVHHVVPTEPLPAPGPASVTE

As to `Cc1ncsc1-c1ccc(CNC(=O)[C@@H]2C[C@@H](O)CN2C(=O)[C@@H](NC(=O)COCCOCCOCCOCCOCC(=O)N2CC(Nc3cc(C(=O)NC[C@H](O)CN4CCc5ccccc5C4)ncn3)C2)C(C)(C)C)cc1` [YS31-60, N-((S)-3-(3,4-dihydroisoquinolin-2(1H)-yl)-2-hydroxypropyl)-6-((1-((S)-19-((2S,4R)-4-hydroxy-2-((4-(4-methylthiazol-5-yl)benzyl)carbamoyl)pyrrolidine-1-carbonyl)-20,20-dimethyl-17-oxo-3,6,9,12,15-pentaoxa-18-azahenicosanoyl)azetidin-3-yl)amino)pyrimidine-4-carboxamide], the “suppressing PRMT5 expression” value in assay [1] is on record as “especially effective”. In assay [2], the “suppressing PRMT5 activity” value is recorded as “especially effective”.

`O=C(NC[C@H](O)CN1CCc2ccccc2C1)c1cc(NC2COC2)ncn1` [EPZ015666, reference compound]: the “cell growth of MCF-7 cells” value in assay [3] is recorded as “significantly inhibited”. Besides, the “anti-proliferation effect compared with genetic PRMT5 knockdown” value in assay [4] is “did not lead to a similar anti-proliferation effect”. The PRMT5 protein levels entry in assay [1] (MCF-7 cells, 5 μM, 6 days, Western blot) is given as “no effect”. The “inhibition of cancer cell proliferation” value in assay [5] is recorded as “failed to optimally inhibit”.

On to `Cc1ncsc1-c1ccc(CNC(=O)[C@@H]2C[C@@H](O)CN2C(=O)[C@@H](NC(=O)CCOCCOCCOCCOCCOCCC(=O)N2CC(Nc3cc(C(=O)NC[C@H](O)CN4CCc5ccccc5C4)ncn3)C2)C(C)(C)C)cc1` [YS43-16, N-((S)-3-(3,4-dihydroisoquinolin-2(1H)-yl)-2-hydroxypropyl)-6-((1-((S)-21-((2S,4R)-4-hydroxy-2-((4-(4-methylthiazol-5-yl)benzyl)carbamoyl)pyrrolidine-1-carbonyl)-22,22-dimethyl-19-oxo-4,7,10,13,16-pentaoxa-20-azatricosanoyl)azetidin-3-yl)amino)pyrimidine-4-carboxamide], for which the “suppressing PRMT5 expression” value in assay [1] is reported as “especially effective”. Also, the “suppressing PRMT5 activity” value in assay [2] was “especially effective”.

Regarding `O=C1CCC(N2C(=O)c3cccc(NCCCCCCC(=O)N4CC(Nc5cc(C(=O)NC[C@H](O)CN6CCc7ccccc7C6)ncn5)C4)c3C2=O)C(=O)N1` (stereo partly drawn) [YS43-8, N-((S)-3-(3,4-dihydroisoquinolin-2(1H)-yl)-2-hydroxypropyl)-6-((1-(7-((2-(2,6-dioxopiperidin-3-yl)-1,3-dioxoisoindolin-4-yl)amino)heptanoyl)azetidin-3-yl)amino)pyrimidine-4-carboxamide], the “suppressing PRMT5 expression” value in assay [1] is “especially effective”. Besides, the “PRMT5 protein levels, concentration and time dependence” value in assay [1] (MCF-7 cells, serial dilutions of compounds, 6 days, Western blot) was “concentration- and time-dependent”. Also, the “suppressing PRMT5 activity” value in assay [2] is “especially effective”.

Values taken from patent publication US20210261538A1, “PROTEIN ARGININE METHYLTRANSFERASE 5 (PRMT5) DEGRADATION / DISRUPTION COMPOUNDS AND METHODS OF USE” (ICAHN SCHOOL OF MEDICINE AT MOUNT SINAI, priority 2018, published 2021).
